In experiment [1] the test system is RAW264.7 macrophages. The experiment in a line: ROS production (DCFH-DA probe in LPS-stimulated RAW264.7 cells). Format: cell-based. The settings on record: Mus musculus, 10 μg/mL, relative to control (LPS only) set to 100%. As to the method:
(§1) RAW264.7 macrophages were purchased from the National Collection of Authenticated Cell Cultures (Shanghai, China). The cell culture medium was supplemented with 10% fetal bovine serum and 100 U/mL penicillin and 100 μg/mL streptomycin in DMEM culture medium.
The accumulation of ROS was assessed by the radical probe DCFH-DA. At the beginning, RAW264.7 cells were seeded in 6-well plate at 1×10^6 cells/well for 24 hours followed by a 24 hour exposure to LPS to induce an inflammatory response by the RAW264.7 cells. Subsequently, the cells were exposed to different combinations of test ingredients. For the control, the cells were stimulated with LPS for 24 hours, followed by 24 hour with medium only. All experiments were performed in triplicate. […] After incubation at 37 °C for 20 minutes in the dark, the cells were washed and lysed to release intracellular DCF and the fluorescence intensity was detected at 488 nm excitation and 525 nm emission using a microplate spectrofluorometer. The higher the measured value, the higher the level of ROS.
A combination of two compounds was considered as having synergy if both values, as calculated according to formulas 1a and 1b below, were higher than 1. […] If a combination of three compounds were to be evaluated, a similar logic is applied, but the assessed concentration in the combination is divided by 3 and three comparisons are made. […]

Experiment [2] concerns RAW264.7 macrophages. Put plainly: Macrophage proliferation (CCK-8 viability of LPS-stimulated RAW264.7 cells). The format is cell-based. As to the method:
as §1
The viability of RAW264.7 cells was measured by Cell Counting Kit (CCK-8). Briefly, RAW264.7 cells were plated into 96-well plates at a density of 5×10^4 cells/well and incubated at 37 °C, 5% CO2 for 24 hours. Next the cells were exposed to 1 μg/mL lipopolysaccharides (LPS) for 24 hours to induce an inflammatory response by the RAW264.7 cells. Subsequently, the cells were exposed to different combinations of test ingredients for 24 hours. For the control, the cells were stimulated with LPS for 24 hours, followed by 24 hours with medium only. […] The absorbance was recorded on an automatic microplate reader with an […] of 450 nm. The higher the measured value, the higher the number of viable cells.
The macrophage proliferation is expressed as a percentage compared to the control (LPS only) which was set to 100%. […]
For this evaluation, the concentration at which each test ingredient provided an equivalent effect on macrophage proliferation was determined.
A combination of two compounds was considered as having synergy if both values, as calculated according to formulas 1a and 1b below, were higher than 1. […]

With `O=C(O)c1cc(C(=O)O)c2c(n1)C(=O)C(=O)c1cc(C(=O)O)[nH]c1-2` [PQQ, Pyrroloquinoline quinone], the activity at 10 µg/mL in the experiment on RAW264.7 macrophages [1] came out at 62.8 ± 5.3%; with RAW264.7 macrophages [2] (Mus musculus, RAW264.7, 24 h, Example 2, 10 μg/mL, relative to control (LPS only) set to 100%) it was 142 ± 14.1%. Also, the “Concentration that provided an equivalent effect on macrophage proliferation” value in the experiment on RAW264.7 macrophages [2] (Table 4, LPS-stimulated RAW264.7 cells) was 10 µg/mL.

The record behind these values is patent US20260345585A1, “DIETARY SUPPLEMENT COMPRISING A PREBIOTIC AND ANTIOXIDANT” (N.V. Nutricia, priority 2023, published 2026).
